Test results published in patent US20040029244A1, “Phospholipase d effectors for therapy and screening” (priority 2003, published 2004).
Starred links: 1 amine or outer side, 2 acyl side, 3 side chain; linkers in the order of their positions; H or OH if unused. Positions of bridges follow the written chain, without caps; N, C: chain ends. Non-standard residues stand in square brackets, D forms with d. Residues, ends and D or L forms follow the SMILES beside them. Chains are numbered I, II in the order given. Actinocin(9to1) = Cc1c2oc3c(C)ccc(C(=O)[*:1])c3nc-2c(C(=O)[*:2])c(N)c1=O; NMeV = CN[C@H](C(=O)O)C(C)C; Sar = CNCC(=O)O

Experiments:
Type in all cases: cell-based, human
[1] = test system: MMP-9 secretion from HT 1080 cells; experiment: MMP-9 secretion and activity assay (zymogram gels of cell medium); conditions: for MMP-9 secretion in response to various PMA concentrations at 133 mM alcohol: 133 mM alcohol 45 min before PMA, FIG. 4B; for effect on PMA-induced MMP-9 secretion at 200 mM alcohol: 200 mM alcohol 45 min before 100 nM PMA
Experimental: FIG. 4. […] Overnight serum-deprived cells were incubated in freshly added DMEM, 0.1% BSA. A, the indicated concentrations of either 2-propanol or 1-propanol were then added. After 45 min, 100 nM PMA-was added and cells were incubated for 7.5 h after which media samples (5 ? l) were analyzed for MMP-9 secretion. B, the cells were incubated with 133 mM 2-propanol or 1-propanol for 45 min. PMAa was then introduced to give the indicated concentrations. The cells were incubated for 7.5 h after which 5 ? l media samples were analyzed for MMP-9 secretion. The data shown are representative of three independent experiments. […]
MMP-9 secretion and activity assay Before assay, the cell medium was replaced with fresh DMEM, 0.1% BSA containing, unless otherwise described, 100 nM PMA. In experiments involving inhibition with BFA, it was added 30 min before induction with PMA. Medium samples were collected after 7.5 h and loaded with non-reducing sample buffer (2% SDS, 10% glycerol in 62.5 mM Tris pH 6.8) on zymogram gels. Before developing, gels were rinsed for 30 min in renaturing buffer and then 30 min in developing buffer at room temperature. Gels were incubated in fresh developing buffer for 18 h at 37° C. MMP-9 activity was indicated by the clear 92 kDa band that appeared after staining with Coomassie brilliant blue and removing excess dye by an 18 h rinse in water. Gels were dried and scanned and then the image was inverted (clear to black and black to clear).

[2] = test system: MMP-9 expression in HT 1080 cells; experiment: Cell lysis and immunoblotting with rabbit anti MMP-9; conditions: 7.5 h
Experimental: FIG. 6. Phophatidic acid mediates protein kinase C induction of MMP-9 expression. A, Overnight serum-deprived cells were incubated in freshly added DMEM, 0.1% BSA containing either 100 nM PMA or 80 ? g/ml DDPA. B. Overnight serum-deprived cells were incubated in freshly added DMEM, 0.1% BSA containing 0.5% of either 1-propanol or 2-propanol for control. Following 7.5 h incubation cells were lysed with RIPA buffer and 15 ? g whole cell lysate were subjected to SDS-PAGE and immunoblotting with rabbit anti MMP-9. Immunoreactive bands were visualized using the ECL reaction. The data shown are representative of three independent experiments.
Cell lysis and immunoblotting Overnight serum-deprived cells in 60 mm plates were washed with PBS and then lysed with 750 μl RIPA^− buffer (1% NP-40, 0.1% SDS, 100 mM NaF, 10 mM Na pyrophosphate, 2.5 mM Na3VO4 in PBS). RIPA^− soluble fraction was separated from the non-solube fraction by 15 min centrifugation in a bench top microcentrifuge at 14,000 rpm at 4° C. Protein samples (15 μg) were analyzed after SDS-polyacrylamide gel electrophoresis (SDS-PAGE) by immunoblotting with rabbit anti MMP-9 or anti actin diluted according to manufacturer instructions in PBS, 0.5% Tween 20 and 5% dry milk powder and with horseradish peroxidase-labeled secondary antibody. Immunoreactive bands were visualized by the enhanced chemiluminescence (ECL) reaction.

[3] = test system: PLD in HT 1080 cells; experiment: In vivo PLD assay ([3H]phosphatidylbutanol formation in labeled cells)
Experimental: FIG. 2. Activation of PLD in PMA-treated HT 1080 cells. The cells, at their log phase of growth, were serum deprived and labeled with […] [^3H]myristic acid. Following washing and preincubation with DMEM, 0.1% BSA, 0.3% 1-butanol for 20 min, and 100 nM PMA were added, and cells were incubated for the indicated times at 37° C. Lipids were extracted and analyzed, and the production of labelled phosphatidylbutanol ([^3H]PtdBut) was measured as described under “Materials and Methods”. The values obtained for [^3H]PtdBut were normalized by dividing the measured counts/min by counts/min in the total lipid fraction. Data are expressed as the mean±S.E. of the fold activation in three independent experiments performed in triplicates.
In vivo PLD assay Serum-deprived cells were labeled for 18 h with 1 μCi/ml [^3H]myristic acid and were washed with DMEM, 0.1% BSA. Following 20 min preincubation in DMEM, 0.1% BSA, 0.3% 1-butanol, the cells were stimulated with, unless otherwise described, 100 nM PMA for 20 min. Cells were washed with phosphate saline buffer (PBS) (2.68 mM KC1, 1.47 mM KH2PO4, 8.05 mM Na2PO4, 137 mM NaC1), 0.1% BSA, scraped with 1 ml ice cold CH3OH and transferred into glass tubes. CHC13 and 0.1 N HC1 were added to a final ratio of 1:1:1. The lipid-containing lower phase was collected, dried and dissolved in 30 μl CH3OH, CHC13 (1:1). The samples were loaded on a TLC plate which was developed in the lower phase of H2O, ethylacetate, acetic acid and iso-octane (100:110:20:50 respectively). Tritiated phosphatidylbutanol (PdtBut) was measured after scraping the band corresponding to the PtdBut standard (Avanti Polar Lipids).

With `Cc1c2oc3c(C)ccc(C(=O)N[C@@H]4C(=O)N[C@H](C(C)C)C(=O)N5CCC[C@H]5C(=O)N(C)CC(=O)N(C)[C@@H](C(C)C)C(=O)O[C@@H]4C)c3nc-2c(C(=O)N[C@@H]2C(=O)N[C@H](C(C)C)C(=O)N3CCC[C@H]3C(=O)N(C)CC(=O)N(C)[C@@H](C(C)C)C(=O)O[C@@H]2C)c(N)c1=O` [ActD, actinomycin D] (I: T[dV]P[Sar][NMeV] / II: T[dV]P[Sar][NMeV]; ester I:1-I:C, II:1-II:C; linker I:N-II:N via Actinocin(9to1)) the “effect on MMP-9 secretion induced with phosphatidic acid” value ([1]; 10 μg/ml ActD 45 min, then 80 μg/ml DDPA, 7.5 h, FIG. 5) was “fully decreased”.
For `CCCO` [1-propanol], the “effect on PMA-induced MMP-9 secretion at 100 mM alcohol” value ([1]; 100 mM alcohol 45 min before 100 nM PMA, 7.5 h, FIG. 4A) was “inhibited”, the “MMP-9 secretion in response to various PMA concentrations at 133 mM alcohol” value ([1]; 7.5 h) was “almost totally suppressed” and the “effect on PMA-induced MMP-9 secretion at 200 mM alcohol” value ([1]; 7.5 h, FIG. 4A) was “almost absolute suppression”. The “MMP-9 expression in PMA-treated cells (immunoblot)” value ([2]; 0.5% alcohol pretreatment, PMA, whole cell lysate, FIG. 6) was “suppressed”.
diodecanoylphosphatidic acid [DDPA] was tested, and the “induction of MMP-9 secretion” value ([1]; HT 1080 cells, various concentrations, 7.5 h, FIG. 3) was “induces MMP-9 secretion in a dose-dependent manner”.
With `Cn1cc(C2=C(c3cn(CCCSC(=N)N)c4ccccc34)C(=O)NC2=O)c2ccccc21` [Ro 31-8220] the “effect on PMA-induced MMP-9 secretion” value ([1]; 5 μM inhibitor preincubated 1 h, then 100 nM PMA, 7.5 h, FIG. 1C) was “inhibition of secretion”.
With phosphatidic acid [PA] the “induction of MMP-9 expression (immunoblot)” value ([2]; HT 1080 cells, 80 μg/ml DDPA, FIG. 6A) was “induces de novo MMP-9 expression”.
For `CC(C)O` [2-propanol], the “MMP-9 secretion in response to various PMA concentrations at 133 mM alcohol” value ([1]; 7.5 h) was “continues to be dose-dependent” and the “effect on PMA-induced MMP-9 secretion at 200 mM alcohol” value ([1]; 7.5 h, FIG. 4A) was “inhibitory”.
With `CCCCCCCCCCCCCC(=O)O[C@@H]1[C@@H](C)[C@@]2(O)[C@@H](C=C(CO)C[C@]3(O)C(=O)C(C)=C[C@@H]23)[C@@H]2C(C)(C)[C@]12OC(C)=O` [PMA, phorbol 12-myristate 13-acetate] the “MMP-9 activity accumulating in the medium of treated cells” value ([1]; HT 1080 cells, 100 nM PMA, various times up to 7.5 h) was “time-dependent manner”, the “lowest concentrations at which MMP-9 secretion is detected” value ([1]; HT 1080 cells, 7.5 h, FIG. 1B) was 0.5 to 1 nM and the “time at which PtdBut formation (PLD activity) reaches a maximum” value ([3]; 100 nM PMA, 0.3% 1-butanol, FIG. 2) was 90 min. The “concentration at which the PLD response is detectable” value ([3]; HT 1080 cells, data not shown) was 1 nM and the “concentration at which the PLD response is maximal” value ([3]; HT 1080 cells, data not shown) was 100 nM.
